Assay results: a melting point compilation (Tetko et al.; mined from patent text by program, amines drawn as free bases though some values may be those of a salt)

Row | melting point | SMILES
1 | 215 to 216 °C | CC(=O)OCC(=O)C1(O)C(C)CC2C3CC(C)C4=CC(=O)C=CC4(C)C3=CCC21C (configuration not stated)
2 | 149 to 151 °C | COCC1CN(C(=O)c2cc(OC)c(OC)c(OC)c2)CCN1C(=O)c1csc(-c2ccc(OC)c(OC)c2)n1 (configuration not stated)
3 | 186 to 187 °C | CC(=O)NC[C@H]1CN(c2ccc(N3CCC(O)(C[N+](=O)[O-])CC3)c(F)c2)C(=O)O1
4 | 231 °C | O=[N+]([O-])c1ccc(-c2nc3c(Cl)ncnc3o2)cc1
5 | 152 °C | Cc1cc(-c2cc(F)c(F)cc2-c2ccc(S(C)(=O)=O)cc2)ccc1Cl
6 | > 300 °C | COc1ccc(-c2[nH]nc3c2C(=O)c2c(NC(=O)Cc4ccc(OC)c(OC)c4)cccc2-3)cc1
7 | 58 to 62 °C | COC(=O)CCC(=O)c1ccc(-c2ccc(C(C)(C)C)cc2)cc1
8 | 75 to 76 °C | COc1cc(I)c(C=O)cc1OC(C)C
9 | 187 to 189 °C | O=S(=O)(Nc1ccc2c(-c3ccccc3Cl)n[nH]c2c1)c1cccc(Cl)c1
10 | 203 to 204 °C | Clc1ccc(N2CCN(Cc3n[nH]c4ccccc34)CC2)nc1
11 | 69 °C | CCCCCCCCC#CCC#CCC#CCS(=O)(=O)CC(=O)OC
12 | 150 to 153 °C | CC(=O)ONC(=N)c1ccc(-c2cccc(-c3nc4ccc(C(=N)NOC(C)=O)cc4[nH]3)n2)cc1
13 | 173 to 174 °C | COc1ccc(CNc2cc(C(=O)Nc3ccccc3)ccc2OC)cc1
14 | 117 to 118 °C | COc1nc(C)nc(NC(=O)NS(=O)(=O)c2ccccc2OCC(Cl)CCl)n1 (configuration not stated)
15 | 158 to 160 °C | N#Cc1cnn2c1N(C(=O)CI)CC=C2c1cccc(C(F)(F)F)c1
16 | 163 to 165 °C | COc1cccc2c1CCC(CN1CCC(O)(c3ccccc3)CC1)C2=O (configuration not stated)
17 | 116 to 117 °C | Cc1cc(C)c(C(C)(CO)c2ccc(C(C)C)cc2)c(O)c1C (configuration not stated)
18 | 98 to 100 °C | COc1cc(-c2ccccc2)nc(-c2ccc(CBr)cc2)n1
19 | 149 to 150 °C | COCOc1cc(Cl)ccc1-c1cc(-c2cccc(N(C(=O)OC(C)(C)C)C(=O)[C@@H](N)Cc3c[nH]cn3)c2)c(C#N)c(NC(=O)c2ccco2)n1
20 | 119 to 120 °C | CCOC(=O)Cc1nc(-c2ccc(Cl)cc2)oc1-c1cccs1
21 | 106 to 109 °C | COCCOCCn1cc(C(=O)NCc2ccc(Cl)cc2)c(=O)c2cc(CN(C)[C@H](C)[C@@H](O)c3ccccc3)ccc21
22 | 188 to 189 °C | O=C(Cn1c(=O)oc2ccc(Cl)cc21)c1ccc(C(F)(F)F)cc1
23 | 175 to 180 °C | CC1(O)c2ccccc2-c2c1c(-n1ccnc1)nc1ccc(Br)cc21 (configuration not stated)
24 | 58 to 61 °C | COc1cc(N)c(Cl)cc1C(=O)NCC1CCN(CCCCCN2C(=O)c3ccccc3C2=O)CC1
25 | 166 to 167 °C | CCCCOC1c2ccccc2C(=O)N(CC2CC2)C1(/C=C/C(=O)OCC)CNC(=O)OC(C)(C)C (configuration not stated)
26 | 139 to 140 °C | O=C(N[C@@H](Cc1ccccc1)C(=O)Oc1cc(Cl)c(Cl)cc1Cl)OCc1ccccc1
27 | 141 to 142 °C | N#CN=C(Cc1ccccc1F)NC1CCc2ccccc21 (configuration not stated)

Row | melting point | SMILES
28 | 234 to 235 °C | O=C(NCC12CC3CC(CC(C3)C1)C2)c1cccc(O)c1Cl
29 | 255 to 260 °C | CCCOc1ccccc1C1=NC(=O)C2=NC(C(F)(F)F)=NC2=N1
30 | 73 to 74 °C | CCOC(=O)c1c(Cl)nc(CC)n1Cc1ccc2oc(-c3ccccc3NC(=O)OC(C)(C)C)c(Br)c2c1
31 | 235 °C | CC(C#N)(c1ccc(Cl)cc1)c1ccc(-n2ncc(=O)[nH]c2=O)cc1Cl (configuration not stated)
32 | 177 to 179 °C | O=C1c2cccc3cccc(c23)C(=O)N1CCN1CCC(O)(c2ccccc2)CC1
33 | 192 to 193 °C | CN1c2ccccc2N=C(N2CCN(CCO)CC2)c2cscc21
34 | 202 to 203 °C | CCOC(=O)c1cc2cc(NC(C)=O)ccc2[nH]1
35 | 207 to 208 °C | COC(=O)c1ccc(NC(=O)c2cc(C(C)C)c(C(C)C)s2)cn1
36 | 157 to 158 °C | COc1ccc(-c2cc(C(=O)O)nnc2-c2ccc(OC)cc2)cc1
37 | 74 to 76 °C | CCCCCCCCCCCCc1cc2cc(C(=O)OCCCC)ccc2[nH]1
38 | 135 to 137 °C | COCc1cc2c(s1)CCCc1cc(=O)n(-c3ccc(Cl)cc3)nc1-2
39 | 243 to 245 °C | N#Cc1ccc(Cn2cncn2)c(-c2ccc(O)c(Cl)c2)c1
40 | 75 °C | CC(C)(C)NS(=O)(=O)c1cnc(Cl)s1
41 | 226 to 228 °C | CN1CCN(Cc2ccccc2-c2cc3c(Nc4ccc5[nH]ccc5c4)c(C#N)cnc3s2)CC1
42 | 84 to 85 °C | OC(Cc1ccccc1)c1ccccc1Br (configuration not stated)
43 | 80 to 82 °C | CCOc1cc(=O)n(C)c2ccccc12
44 | 125 °C | CC(C)(C)OC(=O)C1CC(Cc2ccccc2)C(=O)N1C(=O)OC(C)(C)C (configuration not stated)
45 | 273 °C | Nc1ccc(-c2noc(-c3cnc4ccc(-c5ccc(Cl)cc5)cn34)n2)cn1
46 | 117 to 120 °C | CCOC(=O)Cc1ccc(C(=O)c2ccc(C#N)cc2)n1C
47 | 188 to 189 °C | Cn1nc2c(N)nc3ccccc3c2c1CCCCCl
48 | 177 to 180 °C | CCCc1nc2c(N)nc3cc(-c4cccc(C(=O)N5CCCC5)c4)ccc3c2s1
49 | 103 to 106 °C | CCOC(=O)OC1=C(c2cc(C)ccc2C)C(=O)NC1CC1CCS(=O)CC1 (configuration not stated)
50 | 190 to 193 °C | N#CCc1cccc(-c2ccc3c(c2)C2(CCCCC2)C(=O)N3)c1
51 | 156 to 157 °C | COCOc1ccc(OC)c(-c2ccc(C[C@H](NC(=O)c3c(Cl)cccc3Cl)C(=O)O)cc2)c1OC
52 | 107 °C | C[Si](C)(C)CC(O)(Cn1nc[nH]c1=S)c1ccc(F)cc1 (configuration not stated)
53 | 194 °C | COc1ccc(Nc2nc(Cl)nc(Nc3ccc(OC)c(F)c3)n2)cc1F

The remaining lines, values behind:

Row | SMILES | melting point
54 | CN(c1ccc(F)cc1)c1nc(=O)c2cccnc2s1 | 184 to 185 °C
55 | COc1ccccc1S(=O)(=O)N(C)c1cccc2cc(C3=NCC(CC(=O)N4CCC(O)CC4)S3)[nH]c12 (configuration not stated) | 166 to 167 °C
56 | CC(C)NOC(=O)c1n[nH]c2c(=O)[nH]c3cc(Cl)ccc3c(=O)c12 | 224 °C
57 | Clc1ccc(Nc2nnc(Cl)c3sccc23)cc1 | 139 to 142 °C
58 | O=C1NCCc2c(-c3ccc4ccccc4c3)[nH]c3cccc1c23 | 261 to 262 °C
59 | CC(Cc1ccc(OCc2ccncc2)cc1)NCC(O)c1cccc(Cl)c1 (configuration not stated) | 85 to 110 °C
60 | CCCCOc1ccc(S(=O)(=O)C2(C(=O)NO)CCN(Cc3ccc(F)cc3)CC2)cc1 | 112 °C
61 | NC(=O)c1ccnc(Cl)n1 | 152 to 154 °C
62 | CC(CN1CCCC1)N1c2ccccc2Sc2ccc(C3=NC4CCCCC4N3)cc21 (racemic) | 109 °C
63 | CCOC(=O)c1cnc(S(=O)(=O)Cc2ccccc2)n1-c1c(CC)cccc1CC | 62 to 66 °C
64 | O=C1C(c2cc3c(cc2O)OCCO3)c2c(F)cccc2N1C(c1ccccc1)c1ccccc1 (configuration not stated) | 115 to 118 °C
65 | CC(CN1CCCS1(=O)=O)c1ccncc1 (configuration not stated) | 90 to 92 °C
66 | O=C(NCCO)/C(=C/c1ccc(C2CC2)cc1)NC(=O)c1ccc(OCCc2ccccc2)cc1 | 113 to 115 °C
67 | Oc1ccc(F)cc1Cc1ccc(F)cc1 | 134 to 139 °C
68 | Cc1ccc(OCc2c(F)cccc2F)c(N)n1 | 121 to 123 °C
69 | CCCCCCCCCCCCNC(=O)c1cc(Br)c(OCCNC(N)=O)c(-c2cccc(C(F)(F)F)c2)c1 | 122 to 125 °C
70 | O=C1NC(=O)C(=Cc2ccc3c(c2)CCC(Cc2ccccc2)N3Cc2ccccc2)S1 (configuration not stated) | 199 to 201 °C
71 | CN(C)C1(c2ccccc2)CC=C(c2c[nH]c3ccccc23)CC1 (configuration not stated) | 164 to 172 °C
72 | COC1=C(OC)C(=O)C(CCCCC#CCCCCO)=C(C)C1=O | 52 to 53 °C
73 | CCc1nn(-c2ccc(C(=N)N)cc2)c(=O)n1-c1ccc(CCC(=O)O)cc1 | > 250 °C
74 | OC(COc1cccnc1)c1cccc(OCc2ccc3ccccc3n2)c1 (configuration not stated) | 103 to 104 °C
75 | CCCCOc1ccc(S(=O)(=O)C2(C(=O)NO)CCN(Cc3ccncc3)CC2)cc1 | 118 °C

Row | SMILES | melting point
76 | COc1ccc(C(=O)n2c3c(c4cc(F)ccc42)CC(C(=O)O)CC3)cc1 (configuration not stated) | 197 to 198 °C
77 | CCOC(=O)C(Cc1ccc2ccccc2n1)(OC1CCCCO1)C(=O)OCC (configuration not stated) | 75 to 78 °C
78 | CC(C)(C)C(=O)Nc1cccc(P(c2ccccc2)c2cccc3ccccc23)n1 (configuration not stated) | 55 °C
79 | CC(C)S(=O)(=O)C(C#N)=Cc1c(Cl)n(C)c2ccccc12 | 141 °C
80 | CCc1nc(C)n(COCc2ccccc2)c1Sc1ccccc1 | 156 to 159 °C
81 | O=Cc1ccc(N(Cc2ccccc2)Cc2ccccc2)cc1[N+](=O)[O-] | 67 to 70 °C
82 | Cc1nnc(SCC2=C(C(=O)O)N3C(=O)C(NC(=O)CC4=CSCCS4)C3SC2)s1 (configuration not stated) | 170 °C
83 | Cc1ccnc2c([N+](=O)[O-])cc(F)cc12 | 139 to 141 °C
84 | CCC1(C)NC(=O)C(c2c(C)cc(C)cc2C)C1=O (configuration not stated) | 137 to 142 °C
85 | Cc1nc(-c2c(Cl)cc(C(F)(F)F)cc2Cl)[nH]c1[N+](=O)[O-] | 316 to 318 °C
86 | CCOC(=O)c1c(-c2cccs2)nn(CC)c(=O)c1Nc1cccnc1 | 124 to 125 °C
87 | O=C(c1ccc2c(=O)nc(-c3ccccn3)sc2c1)N1CCCC1 | 174 °C
88 | COCCc1nc2c(N)nc3ccccc3c2n1CCOCCN(C)S(C)(=O)=O | 145 to 146 °C
89 | CCOc1ccc(C(=O)NCc2ccc3c(c2)C(=O)N(C2(C)CCC(=O)NC2=O)C3=O)cn1 (configuration not stated) | 174 to 176 °C
90 | COC(=O)c1nc(Br)cc(Br)c1O | 181 to 183 °C
91 | CC(=O)c1cc([N+](=O)[O-])ccc1NC(=O)CCl | 162 °C
92 | c1ccc(COc2ccc(Nc3ccccn3)cc2)cc1 | 110 to 112 °C
93 | CC(C)=CC(=O)N(C)c1cccc(Br)c1 | 92 to 94 °C
94 | Nc1cccc2c1N1CCN=C1S2 | 229 °C
95 | COc1ccccc1NC(=O)Nc1nc(NCCc2ccc(O)cc2)nc(Oc2ccc3ccccc3c2)n1 | 238 °C
96 | O=C(O)C(Cc1ccccc1)C(=O)NCc1cccc2ccccc12 (configuration not stated) | 142 to 145 °C
97 | COc1c(C)cc(C2=C(c3ccc(S(C)(=O)=O)cc3)OC(C)(C)C2=O)cc1C | 130 to 131 °C
